For seven compounds, IC50 results are on record in ChEMBL document CHEMBL5726493, “Compositions and methods of modulating short-chain dehydrogenase activity” (2017).

The target of this experiment is T1, 15-hydroxyprostaglandin dehydrogenase [NAD(+)] (Homo sapiens, UniProt P15428).
T1 sequence (P15428 whole entry): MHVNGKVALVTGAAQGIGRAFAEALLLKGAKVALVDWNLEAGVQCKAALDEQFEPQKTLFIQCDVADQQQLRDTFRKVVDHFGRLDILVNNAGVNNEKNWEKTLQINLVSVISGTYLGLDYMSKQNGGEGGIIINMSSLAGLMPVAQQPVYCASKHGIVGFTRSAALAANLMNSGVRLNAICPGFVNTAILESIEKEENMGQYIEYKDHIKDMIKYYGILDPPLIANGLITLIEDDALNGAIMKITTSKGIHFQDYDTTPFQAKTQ
Kind of experiment: In Vitro Assay: Each compound for inhibiting enzymatic activity of recombinant 15-PGDH in an in vitro assay.
Take `C=CCNC(=O)c1cccc(-c2cc(-c3nccs3)nc3sc([S+]([O-])CCCC)c(N)c23)c1` (configuration not stated): the IC50 was 2.5 nM. With `CCCC[S+]([O-])c1sc2nc(-c3nccs3)cc(-c3cccc(C(=O)NCCN(C)C)c3)c2c1N` (configuration not stated), the IC50 was 19.3 nM. Take `CCCC[S+]([O-])c1sc2nc(-c3nccs3)cc(-c3cccc(C(=O)N4CCN(C)CC4)c3)c2c1N` (configuration not stated): the IC50 came out at 36.4 nM. For the compound `CCCC[S+]([O-])c1sc2nc(-c3nccs3)cc(-c3ccc(CN(C)C)cc3)c2c1N` (configuration not stated), the IC50 turned out to be 5.7 nM.

For `CCCC[S+]([O-])c1sc2nc(-c3nccs3)cc(-c3ccc(OCC(=O)O)cc3)c2c1N` (configuration not stated), the IC50 was 2.71 nM. Turning to `CCCC[S+]([O-])c1sc2nc(-c3nccs3)cc(-c3ccc(OCC(=O)OC)cc3)c2c1N` (configuration not stated), the concentration for half-maximal inhibition (IC50) is 8.53 nM. As for `CCCC[S+]([O-])c1sc2nc(-c3nccs3)cc(-c3cccc(C(=O)O)c3)c2c1N` (configuration not stated), the IC50 came out at 20.2 nM.
